Source: ChEMBL document CHEMBL1201862, “PubChem BioAssay data set” (2004)
The source made the active and inactive calls.

Columns and labels:
[1] = SNU-C1 cell viability reduction, dose response, CellTiter-Glo luminescence (AID 1117323); format: functional, cell-based
[2] = rise of 2N DNA cells, HeLa – IC50, dose response (AID 1117349); format: functional, cell-based
[3] = loss of viability in HepG2 cells – cell-based, CellTiter-Glo, cherry-picked, cytotoxicity control for Shn3 inhibitor project, dose response (AID 624134); format: functional
[4] = rise of 4N DNA cells, HeLa – IC50, dose response (AID 1117351); format: functional, cell-based
[5] = reduction of Shn3 3'UTR-driven luciferase in osteoblasts – cell-based, Clone20 osteoblasts, firefly luciferase, cherry-picked, dose response (AID 624132); format: functional;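 also: firefly luciferase luminescence from reporter carrying the Shn3 3'UTR in osteoblasts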
[6] = cytotoxicity toward HT-29 cells – cell-based, CellTiter-Glo luminescence, IC50, dose response (AID 1117330); format: functional
[7] = Counterscreen for activators of the function of SWI/SNF related, matrix associated, actin dependent regulator of chromatin, subfamily a, member 2 (SMARCA2, BRM): Luminescence-based cell-based high throughput dose response assay to identify non-selective compounds using the VP16 reporter assay.; format: functional
[8] = molecular target: SWI/SNF-related matrix-associated actin-dependent regulator of chromatin subfamily A member 2 (Homo sapiens, UniProt P51531); assay: Luminescence-based cell-based high throughput dose response assay to identify activators of the function of SWI/SNF related, matrix associated, actin dependent regulator of chromatin, subfamily a, member 2 (SMARCA2, BRM).; format: functional
SWI/SNF-related matrix-associated actin-dependent regulator of chromatin subfamily A member 2, sequence (P51531 whole entry): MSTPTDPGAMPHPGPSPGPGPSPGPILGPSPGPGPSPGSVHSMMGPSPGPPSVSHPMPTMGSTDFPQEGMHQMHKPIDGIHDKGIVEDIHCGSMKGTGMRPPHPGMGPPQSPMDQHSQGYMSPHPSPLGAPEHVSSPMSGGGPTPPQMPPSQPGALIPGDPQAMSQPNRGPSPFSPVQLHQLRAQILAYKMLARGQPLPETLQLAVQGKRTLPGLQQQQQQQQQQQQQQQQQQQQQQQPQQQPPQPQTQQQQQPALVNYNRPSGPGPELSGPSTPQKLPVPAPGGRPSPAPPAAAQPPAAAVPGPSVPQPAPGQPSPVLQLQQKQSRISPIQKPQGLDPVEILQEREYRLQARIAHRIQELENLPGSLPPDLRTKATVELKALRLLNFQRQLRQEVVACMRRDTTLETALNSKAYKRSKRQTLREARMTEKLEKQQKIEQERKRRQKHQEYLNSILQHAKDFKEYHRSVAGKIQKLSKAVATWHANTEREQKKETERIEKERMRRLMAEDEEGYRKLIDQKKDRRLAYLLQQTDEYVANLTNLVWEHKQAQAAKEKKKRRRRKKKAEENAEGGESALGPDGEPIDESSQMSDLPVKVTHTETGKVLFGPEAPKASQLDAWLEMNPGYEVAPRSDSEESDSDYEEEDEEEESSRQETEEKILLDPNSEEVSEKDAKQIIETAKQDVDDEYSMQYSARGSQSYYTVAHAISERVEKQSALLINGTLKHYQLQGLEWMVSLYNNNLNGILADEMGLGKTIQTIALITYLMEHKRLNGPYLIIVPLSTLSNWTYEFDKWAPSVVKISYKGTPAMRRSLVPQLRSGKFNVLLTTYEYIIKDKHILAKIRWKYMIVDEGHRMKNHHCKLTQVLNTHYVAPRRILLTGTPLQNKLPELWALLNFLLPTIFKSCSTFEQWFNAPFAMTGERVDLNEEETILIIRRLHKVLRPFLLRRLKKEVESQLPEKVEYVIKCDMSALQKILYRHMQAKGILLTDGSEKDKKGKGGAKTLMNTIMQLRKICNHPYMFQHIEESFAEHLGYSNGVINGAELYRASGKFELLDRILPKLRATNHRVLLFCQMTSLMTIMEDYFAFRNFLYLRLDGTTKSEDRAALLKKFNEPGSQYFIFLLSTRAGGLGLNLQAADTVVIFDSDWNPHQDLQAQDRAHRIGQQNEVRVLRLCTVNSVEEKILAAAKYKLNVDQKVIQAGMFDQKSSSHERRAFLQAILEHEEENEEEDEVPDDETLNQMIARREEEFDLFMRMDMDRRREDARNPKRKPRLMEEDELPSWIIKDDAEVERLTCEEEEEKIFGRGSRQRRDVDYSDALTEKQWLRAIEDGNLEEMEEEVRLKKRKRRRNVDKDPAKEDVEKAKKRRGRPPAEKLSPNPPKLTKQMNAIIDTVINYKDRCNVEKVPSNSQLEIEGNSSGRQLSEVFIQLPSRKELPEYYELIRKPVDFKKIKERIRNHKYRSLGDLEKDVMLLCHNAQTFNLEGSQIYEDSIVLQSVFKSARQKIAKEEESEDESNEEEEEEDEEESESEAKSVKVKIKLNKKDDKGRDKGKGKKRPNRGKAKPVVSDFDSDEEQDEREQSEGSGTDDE

[9] = Reduced DLD-1 viability, concentration-response, CellTiter-Glo luminescence (AID 1117352); format: functional
[10] = Counterscreen for inhibitors of Trypanosoma brucei methionyl tRNA synthetase (MetRS): Luminescence-based cell-based high throughput dose response assay to identify compounds that are cytotoxic to Jurkat human T lymphocyte cells.; format: functional
[11] = molecular target: T1, Methionyl-tRNA synthetase, putative (Trypanosoma brucei brucei, UniProt Q38C91); format: functional, Trypanosoma brucei brucei strain 927/4 GUTat10.1
T1 sequence (Q38C91 whole entry): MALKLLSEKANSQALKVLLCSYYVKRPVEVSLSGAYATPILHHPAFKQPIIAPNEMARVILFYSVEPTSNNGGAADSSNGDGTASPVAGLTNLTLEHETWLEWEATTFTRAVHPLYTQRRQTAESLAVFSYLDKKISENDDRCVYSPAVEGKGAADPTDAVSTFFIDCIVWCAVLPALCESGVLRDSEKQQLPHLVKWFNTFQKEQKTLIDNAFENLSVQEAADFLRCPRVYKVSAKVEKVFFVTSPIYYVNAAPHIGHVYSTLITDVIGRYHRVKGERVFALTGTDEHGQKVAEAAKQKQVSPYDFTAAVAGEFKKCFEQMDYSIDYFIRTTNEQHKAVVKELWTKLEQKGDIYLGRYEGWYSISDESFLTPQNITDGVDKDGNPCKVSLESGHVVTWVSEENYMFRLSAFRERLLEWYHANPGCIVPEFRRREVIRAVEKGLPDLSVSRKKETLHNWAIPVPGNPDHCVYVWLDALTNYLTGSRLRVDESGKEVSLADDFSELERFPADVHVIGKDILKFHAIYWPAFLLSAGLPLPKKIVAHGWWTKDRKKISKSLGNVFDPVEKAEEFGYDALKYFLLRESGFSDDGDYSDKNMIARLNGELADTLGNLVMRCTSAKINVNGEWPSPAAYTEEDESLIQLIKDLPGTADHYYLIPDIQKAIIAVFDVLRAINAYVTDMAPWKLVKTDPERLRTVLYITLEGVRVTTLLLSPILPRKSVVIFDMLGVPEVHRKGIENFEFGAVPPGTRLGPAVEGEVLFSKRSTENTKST

[12] = molecular target: T1, Methionyl-tRNA synthetase, putative; format: functional, Trypanosoma brucei brucei strain 927/4 GUTat10.1; remark: listed apart in the source
cells = format: functional, cell-based
[13] = molecular target: T2, Nuclear receptor subfamily 0 group B member 1 (Homo sapiens, UniProt P51843); format: functional, cell-based;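 also: HEK293T cells transfected with SF-1 and DAX-1 plus StAR promoter luciferase reporter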
T2 sequence (P51843 whole entry): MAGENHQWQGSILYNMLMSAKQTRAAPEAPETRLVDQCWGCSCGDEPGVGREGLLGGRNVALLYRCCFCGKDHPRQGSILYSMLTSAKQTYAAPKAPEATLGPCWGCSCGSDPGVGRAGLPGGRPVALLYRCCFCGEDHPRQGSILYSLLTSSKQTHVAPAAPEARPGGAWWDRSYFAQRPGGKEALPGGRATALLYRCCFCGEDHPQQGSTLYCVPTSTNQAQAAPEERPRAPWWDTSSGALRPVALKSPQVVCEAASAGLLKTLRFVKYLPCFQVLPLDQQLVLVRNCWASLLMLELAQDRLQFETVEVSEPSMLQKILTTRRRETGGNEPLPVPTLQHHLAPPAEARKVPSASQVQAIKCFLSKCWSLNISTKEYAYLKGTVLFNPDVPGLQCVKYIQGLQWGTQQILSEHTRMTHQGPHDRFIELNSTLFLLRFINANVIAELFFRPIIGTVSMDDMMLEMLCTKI

[14] = Counterscreen for […] of the human trace amine associated receptor 1 (TAAR1): Fluorescence-based cell-based high throughput dose response assay to identify nonselective Ga16 agonists.; format: functional
[15] = Counterscreen for antagonists of the human trace amine associated receptor 1 (hTAAR1): Fluorescence-based cell-based high throughput dose response assay to identify nonselective Ga16 antagonists.; format: functional
[16] = molecular target: T3, Heat shock factor protein 1 (Mus musculus, UniProt P38532); assay: decrease of HSF1-responsive luciferase luminescence – cell-based, NIH3T3, dose retest, confirmation (AID 2382); format: functional;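 also: NIH3T3 fibroblasts with HSF1-driven luciferase reporter stressed by proteasome inhibitor MG132; luminescence from HSF1-driven luciferase expression after 8 hours of MG132 stress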
T3 sequence (P38532 whole entry): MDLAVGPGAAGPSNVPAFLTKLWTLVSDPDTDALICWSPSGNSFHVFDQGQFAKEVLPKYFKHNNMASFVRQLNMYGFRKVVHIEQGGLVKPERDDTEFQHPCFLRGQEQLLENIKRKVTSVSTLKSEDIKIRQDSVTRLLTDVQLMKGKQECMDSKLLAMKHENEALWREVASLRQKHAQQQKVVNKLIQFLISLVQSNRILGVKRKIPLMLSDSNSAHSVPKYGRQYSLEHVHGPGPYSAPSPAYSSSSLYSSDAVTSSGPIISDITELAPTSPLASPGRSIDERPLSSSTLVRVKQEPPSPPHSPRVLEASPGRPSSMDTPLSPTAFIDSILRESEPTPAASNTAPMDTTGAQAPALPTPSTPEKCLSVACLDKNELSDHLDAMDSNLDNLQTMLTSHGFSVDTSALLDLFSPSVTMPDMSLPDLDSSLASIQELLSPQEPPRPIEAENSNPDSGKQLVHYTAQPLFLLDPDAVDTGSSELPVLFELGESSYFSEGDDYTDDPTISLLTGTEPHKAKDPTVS

[17] = molecular target: Fructose-bisphosphate aldolase (Mycobacterium tuberculosis, UniProt P9WQA3); assay: Fluorescence-based biochemical high throughput dose response assay for inhibitors of the fructose-bisphosphate aldolase (FBA) of M. tuberculosis.; format: functional
Fructose-bisphosphate aldolase, sequence (P9WQA3 whole entry): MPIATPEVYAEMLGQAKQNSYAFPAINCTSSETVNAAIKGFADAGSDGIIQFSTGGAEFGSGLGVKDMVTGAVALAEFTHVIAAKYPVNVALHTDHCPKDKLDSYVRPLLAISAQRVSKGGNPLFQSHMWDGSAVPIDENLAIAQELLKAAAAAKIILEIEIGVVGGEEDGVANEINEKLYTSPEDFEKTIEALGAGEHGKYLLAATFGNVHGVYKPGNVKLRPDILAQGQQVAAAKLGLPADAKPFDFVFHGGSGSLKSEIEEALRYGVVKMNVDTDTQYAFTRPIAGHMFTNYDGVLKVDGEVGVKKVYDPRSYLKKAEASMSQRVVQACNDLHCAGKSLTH

Protein S100-A4 = Protein S100-A4 (Homo sapiens, UniProt P26447); assay: human S100A4 peptide interaction inhibition curves – biochemical, fluorescence polarization, cherry-picked hits, dose response (AID 687001); format: functional
Protein S100-A4, sequence (P26447 whole entry): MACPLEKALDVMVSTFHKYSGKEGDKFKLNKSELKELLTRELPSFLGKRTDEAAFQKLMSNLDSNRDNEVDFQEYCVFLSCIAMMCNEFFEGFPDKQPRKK

Beta-lactamase [18] = molecular target: Beta-lactamase (Salmonella choleraesuis (strain SC-B67), UniProt Q5J463)
Beta-lactamase (Salmonella choleraesuis (strain SC-B67), UniProt Q5J463), sequence (Q5J463 whole entry): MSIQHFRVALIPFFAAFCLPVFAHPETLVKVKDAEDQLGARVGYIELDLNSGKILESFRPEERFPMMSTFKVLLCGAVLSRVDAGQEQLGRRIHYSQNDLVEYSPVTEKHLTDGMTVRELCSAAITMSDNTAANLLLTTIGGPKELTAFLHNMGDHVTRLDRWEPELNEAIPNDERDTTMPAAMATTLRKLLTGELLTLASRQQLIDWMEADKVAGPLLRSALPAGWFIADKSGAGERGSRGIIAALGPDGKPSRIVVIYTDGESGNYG

[19] = molecular target: T4, Calpain-2 catalytic subunit (Sus scrofa, UniProt P43367); assay: m-calpain protease blockers, concentration series – biochemical, fluorogenic peptide substrate, dose response (AID 1420); format: functional
T4 sequence (P43367 whole entry): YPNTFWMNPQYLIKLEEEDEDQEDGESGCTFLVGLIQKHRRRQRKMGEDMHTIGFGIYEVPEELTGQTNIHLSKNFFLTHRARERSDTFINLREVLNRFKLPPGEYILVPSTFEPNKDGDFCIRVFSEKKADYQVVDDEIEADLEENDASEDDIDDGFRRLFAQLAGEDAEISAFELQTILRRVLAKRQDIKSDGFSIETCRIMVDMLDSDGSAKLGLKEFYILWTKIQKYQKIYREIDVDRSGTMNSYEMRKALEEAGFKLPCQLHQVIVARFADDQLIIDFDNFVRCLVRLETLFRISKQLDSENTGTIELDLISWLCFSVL

Beta-lactamase [20] = molecular target: Beta-lactamase (Pseudomonas aeruginosa, UniProt Q79MP6);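 also: biochemical dose-response test of metallo-beta-lactamase enzyme inhibition, read out by epi-absorbance; purified recombinant IMP-1 metallo-beta-lactamase with nitrocefin as substrate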
Beta-lactamase (Pseudomonas aeruginosa, UniProt Q79MP6), sequence (Q79MP6 whole entry): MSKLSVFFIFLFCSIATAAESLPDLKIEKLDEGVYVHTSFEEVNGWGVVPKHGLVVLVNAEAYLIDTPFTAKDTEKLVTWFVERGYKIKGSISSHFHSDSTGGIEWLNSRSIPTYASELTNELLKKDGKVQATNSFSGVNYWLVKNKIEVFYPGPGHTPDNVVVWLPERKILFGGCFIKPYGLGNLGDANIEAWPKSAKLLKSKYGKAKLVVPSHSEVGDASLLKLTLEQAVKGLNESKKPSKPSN

ORF 73 = molecular target: T5, ORF 73 (Human herpesvirus 8, UniProt O40947); assay: KSHV LANA DNA-binding disruption – biochemical, fluorescence polarization, cherry-picked samples, dose response (AID 504725); design: species or system Human gammaherpesvirus 8;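 also: fluorescence polarization of a labeled DNA duplex reporting LANA DNA binding; potency is for inhibitors that block LANA binding to the DNA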
T5 sequence (O40947 whole entry): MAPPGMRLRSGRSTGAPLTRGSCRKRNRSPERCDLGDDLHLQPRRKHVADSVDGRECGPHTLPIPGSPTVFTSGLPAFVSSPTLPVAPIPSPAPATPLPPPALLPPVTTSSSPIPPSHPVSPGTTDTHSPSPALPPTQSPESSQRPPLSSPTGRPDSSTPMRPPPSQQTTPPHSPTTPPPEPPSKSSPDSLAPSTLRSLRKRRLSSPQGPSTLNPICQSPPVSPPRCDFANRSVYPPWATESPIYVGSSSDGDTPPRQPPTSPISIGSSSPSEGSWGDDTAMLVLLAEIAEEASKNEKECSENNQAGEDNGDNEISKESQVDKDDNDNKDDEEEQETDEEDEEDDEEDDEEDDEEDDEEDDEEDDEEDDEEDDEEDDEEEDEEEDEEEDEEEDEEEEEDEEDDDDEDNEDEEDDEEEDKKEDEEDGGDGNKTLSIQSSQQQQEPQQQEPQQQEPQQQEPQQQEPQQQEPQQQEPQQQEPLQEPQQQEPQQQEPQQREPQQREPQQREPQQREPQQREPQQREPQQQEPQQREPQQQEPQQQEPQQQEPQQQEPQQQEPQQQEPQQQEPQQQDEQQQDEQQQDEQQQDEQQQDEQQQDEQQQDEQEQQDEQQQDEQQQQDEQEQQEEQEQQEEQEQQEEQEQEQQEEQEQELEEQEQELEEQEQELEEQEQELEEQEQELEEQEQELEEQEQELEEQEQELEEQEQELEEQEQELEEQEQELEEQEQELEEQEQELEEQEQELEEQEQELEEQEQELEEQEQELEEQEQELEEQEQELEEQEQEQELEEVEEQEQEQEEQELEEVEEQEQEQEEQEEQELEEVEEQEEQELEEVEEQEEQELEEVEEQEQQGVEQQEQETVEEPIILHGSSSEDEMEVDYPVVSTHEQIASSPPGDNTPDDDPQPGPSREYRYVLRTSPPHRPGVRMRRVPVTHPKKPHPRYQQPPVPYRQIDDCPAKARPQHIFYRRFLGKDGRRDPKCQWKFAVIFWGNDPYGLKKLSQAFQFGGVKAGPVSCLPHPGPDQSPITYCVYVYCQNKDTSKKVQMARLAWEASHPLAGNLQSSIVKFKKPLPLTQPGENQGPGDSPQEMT

[21] = OVCAR-3 cell viability loss – plate reader, dry powder samples, PAX8 inhibitor project, dose response (AID 743044); format: functional, cell-based
[22] = IGROV1 cell killing – plate reader, dry powder samples, PAX8 inhibitor project, dose response (AID 743043); format: functional, cell-based; conditions: IGROV-1
[23] = OVCAR8 cell viability loss – plate reader, dry powder samples, PAX8 project, dose response (AID 743197); format: functional, cell-based; conditions: OVCAR-8
Paired box protein Pax-8 = Paired box protein Pax-8 (Homo sapiens, UniProt Q06710); assay: PAX8 transcriptional activity inhibition in RMG-I – RMG-I cells, luciferase, cherry-pick, dose response (AID 687027); format: functional, cell-based;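 also: luciferase reporter driven by Pax8 target thyroperoxidase promoter measured by SteadyGlo luminescence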
Paired box protein Pax-8, sequence (Q06710 whole entry): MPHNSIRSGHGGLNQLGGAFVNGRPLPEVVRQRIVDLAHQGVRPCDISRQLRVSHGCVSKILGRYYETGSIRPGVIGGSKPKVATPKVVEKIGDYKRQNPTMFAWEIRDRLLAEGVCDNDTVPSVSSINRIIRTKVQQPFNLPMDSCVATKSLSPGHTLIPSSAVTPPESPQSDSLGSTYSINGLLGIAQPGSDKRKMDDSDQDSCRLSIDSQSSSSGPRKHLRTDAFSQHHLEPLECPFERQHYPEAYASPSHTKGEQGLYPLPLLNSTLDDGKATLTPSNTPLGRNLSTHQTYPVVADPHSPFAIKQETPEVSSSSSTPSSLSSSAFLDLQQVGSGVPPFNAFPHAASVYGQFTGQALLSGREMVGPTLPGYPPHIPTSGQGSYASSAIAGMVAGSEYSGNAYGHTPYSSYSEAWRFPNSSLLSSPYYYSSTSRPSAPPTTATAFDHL

[24] = blockade of melanocortin 4 receptor signaling – cell-based, plate reader, cherry pick, counter-screen for LGR2 antagonist project, dose response (AID 743444); format: functional;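 also: transfected HEK 293 cells stimulated with alpha-MSH peptide; potency of inhibitors of the alpha-MSH evoked signal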
[25] = blockers of bursicon-stimulated LGR2 cAMP reporter – cell-based, HEK293, CRE-luciferase reporter, cherry pick, set 2, dose response (AID 743343); format: functional;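 also: transfected cells were stimulated with diluted bursicon conditioned medium after compound addition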
[26] = A549 cell cytotoxicity, dose response, cytotoxicity control, plate reader, cherry-pick, antagonist series (AID 743412); format: functional, cell-based
[27] = toxicity toward HepG2 liver cells – cell-based, plate reader, cherry-pick, antagonist series, cytotoxicity control, dose response (AID 743416); format: functional

CC(C)n1c(/C=C/[C@@H](O)C[C@@H](O)CC(=O)O)c(-c2ccc(F)cc2)c2ccccc21 [FLUVASTATIN SODIUM]
IC50 [1]: > 20 µM (inactive)
IC50 [2]: > 10 µM (inactive)
AC50 [3]: > 70 µM (inactive)
IC50 [4]: > 10 µM (inactive)
AC50 [5]: 2.4 µM (active)
IC50 [6]: > 20 µM (inactive)
EC50 [7]: > 91.1 µM (inactive)
EC50 [8]: > 91.1 µM (inactive)
IC50 [9]: > 20 µM (inactive)

Cc1ccc(CNC(=O)CSc2n[nH]c3c4ccccc4nc-3n2)cc1
IC50 [10]: 83.3 µM (inactive)
IC50 [11]: 119 µM (inactive)
IC50 [12]: 3.38 µM (active)

COc1cc2ccccc2cc1C(=O)Nc1cc(C)ccn1
IC50 (cells): > 67.6 µM (inactive)
IC50 [13]: > 67.6 µM (inactive)

Cc1coc(NC(=O)CSc2nc(-c3ccc(Cl)cc3)cc(C(F)(F)F)c2C#N)n1
EC50 [14]: > 29.9 µM (inactive)
IC50 [15]: > 29.9 µM (inactive)
EC50 [16]: > 195 µM (not active)

O=C(Nc1nnc(-c2ccncc2)s1)C1CCCO1 (stereo not drawn)
IC50 [17]: 1.09 µM (active)

CCOC(=O)C1CCCN(c2ccc([N+](=O)[O-])c3nonc23)C1 (stereo not drawn)
AC50 (Protein S100-A4): 0.505 µM (active)
IC50 (Beta-lactamase [18]): 10.5 µM (inactive)
IC50 [19]: 19 µM (not active)
IC50 (Beta-lactamase [20]): 37.1 µM (inactive)
AC50 (ORF 73): 4.35 µM (active)

COc1ccc(S(=O)(=O)Nc2ccc3c(c2)C(=O)N([C@H](C)CO)C[C@@H](C)[C@H](CN(C)S(=O)(=O)c2ccc(Cl)cc2)OCCCC[C@H](C)O3)cc1
AC50 [21]: 33.5 µM (active)
AC50 [22]: 34.6 µM (active)
AC50 [23]: > 70 µM (inactive)
AC50 (Paired box protein Pax-8): 3.99 µM (active)

CN1CCN(C(=O)C2Cc3c(-c4ccc5c(c4)OCO5)ccnc3O2)CC1 (stereo not drawn)
IC50 [17]: 1.73 µM (active)

C[C@H]1CCCCO[C@@H](CN(C)Cc2ccccc2)[C@@H](C)CN([C@@H](C)CO)C(=O)c2cc(NC(=O)Nc3ccc(C(F)(F)F)cc3)ccc2O1
AC50 [21]: 60.4 µM (active)
AC50 [22]: 48.1 µM (active)
AC50 [23]: 42 µM (active)
AC50 (Paired box protein Pax-8): 11.6 µM (active)

CN(C)c1ccc(NC(=O)c2cnsn2)cc1
IC50 (cells): > 67.5 µM (inactive)
IC50 [13]: > 2.5 µM (active)
AC50 [24]: 6.9 µM (active)
AC50 [25]: 4.26 µM (active)
AC50 [26]: > 52 µM (inactive)
AC50 [27]: > 52 µM (inactive)
